Reference: patent US7056679B2, “Target specific screening and its use for identifying target binders” (Antyra, Inc., priority 2001, dated 2006)

What was measured:
E-tag antibody = test: ELISA analysis of phage on antibody raised against ETAG (positive control); settings: peptide binding to E-tag antibody; phage ELISA units read at 405 nm
Method: (§1) For analysis of individual target binders, colonies were picked and phage prepared as described above using helper phage, M13KO7. Ninety-six-well microtiter plates were coated with 500 ng/well of specific target protein, 500 ng/well lactate dehydrogenase (LDH) irrelevant or non-specific target, 500 ng/well of positive control antibody raised against ETAG, and negative control of non-fat milk powder-PBS 2% at 4° C. overnight. Plates were then blocked with 350 microliters/well PBS containing 2% non-fat milk for 1 hr at room temperature. One hundred microliters per well of phage from isolated clones were added and plates were incubated at room temperature for 2 hr after centrifuging samples for 20 minutes at 3500 rpm at 4° C. The phage solution was then removed, and the wells were washed three times with PBS at room temperature. Antibody raised against M13 conjugated to horseradish peroxidase (Pharmacia) was diluted 1:3000 in PBS-Tween and added to each well (100 μl/well). Incubation was for 1 hr at room temperature, followed by washing with PBS-(0.5%) Tween 3 times as described. Color was developed by addition of ABTS solution (100 μl/well; Boehringer, Indianapolis, Ind.). Plates were analyzed at 405 nm. A clone was considered “positive” if the A405 of the well was ≧2-fold over background.

[1] = system: lactate dehydrogenase (LDH); test: ELISA analysis of phage on LDH (irrelevant, non-specific target); format: binding; settings: peptide binding to LDH polypeptide (non-specific binding); phage ELISA units read at 405 nm
Method: as §1

DGI-2 = target: T1, DGI-2 (Homo sapiens, UniProt Q15004); test: ELISA analysis of phage on DGI-2 polypeptide (specific binding); settings: for DGI-2 (OD): binding to DGI-2 polypeptide (specific binding), phage ELISA units read at 405 nm; for DGI-2/LDH (OD): ratio of specific binding to non-specific binding
T1 construct: encompassed the entire DGI-2 open reading frame (ORF); His-tag of vector pIVEX2.3-MCS (inferred from the vector and from the reverse primer lacking a stop codon); made in house; host or cells: cell-free in vitro translation (Rapid Translation System RTS, Roche; E. coli lysate)
T1 sequence (Q15004 1-111): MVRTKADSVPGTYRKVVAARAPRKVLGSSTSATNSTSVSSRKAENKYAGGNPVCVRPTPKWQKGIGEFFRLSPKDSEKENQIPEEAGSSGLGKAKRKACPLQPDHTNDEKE
Method: To verify that the selected target binders bound to DGI-2, Elisa assays were performed with recombinant DGI-2. DGI-2 was subcloned and expressed using conventional methods as described below.
Protein yields were satisfactory, but most of protein was found in inclusion bodies. Next, DGI-2 was expressed using an in vitro translation system (Rapid Translation System RTS 5000, Roche Diagnostics GmbH, Mannheim Germany). For this system, the DGI-2 ORF was cloned into the pIVEX2.3-MCS vector (Roche Diagnostics) using restriction sites Nde I and Hind III, which were added to DGI-2 by PCR. […] The primers used for the PCR amplification were as follows: […]
as §1

| Substance | ETAG (OD) (E-tag antibody) | LDH (OD) [1] [OD] | DGI-2 (OD) (DGI-2) | DGI-2/LDH (OD) (DGI-2) |
| --- | --- | --- | --- | --- |
| TFTRDVAGPAVSFVRLHSWN (DGI-2-20F-PP-A9; listed as Escherichia coli) | 40.8 | 1.2 | 2.7 | 2.3 |
| ISGQVWSSWRFPGWGGKLF (ISGQVWSSWRFPGWGGKF; DGI-2-20R-3-D10; listed as Escherichia coli) | 19.6 | 1.1 | 4.7 | 4.5 |
| PKDGAAFKGSDFIQGGQTVMERAPALWWRDGGGQWEAPST (DGI-2-40F-3-B72; listed as Escherichia coli) | 10.4 | 0.7 | 1.0 | 1.3 |
| WAGSTDLWQLWSLWVKPELR (DGI-2-20F-3-B7; listed as Escherichia coli) | 16.4 | 0.9 | 1.6 | 1.6 |
| RVSYEMLGRRRRSMHGSSMR (DGI-2-20F-PP-A4; listed as Escherichia coli) | 6.6 | 1.1 | 2.7 | 2.6 |
| DYKTCVSQHVHPLFGEYFYHKVTHMSILSPTFRVTSLYG.K (DYKTCVSQHVHPLFGEYFYHKVTHMSILSPTFRVTSLYGK; DGI-2-40F-3-B95; listed as Escherichia coli) | 5.4 | 0.8 | 1.0 | 1.2 |
| SLLCVVCRPVSGGRALGGVP (DGI-2-20F-PP-B42; listed as Escherichia coli) | 21.5 | 1.0 | 2.4 | 2.5 |
| QLDCLVWGLPGLRCDRPLEQ (DGI-2-20R-3-B10; listed as Escherichia coli) | 17.0 | 1.0 | 7.8 | 7.6 |
| HSGNRQSGSRRTHLLNIFCSSDTFVFPGWSAYLSRVCPGD (DGI-2-40F-3-B122; listed as Escherichia coli) | 11.0 | 0.8 | 1.7 | 2.2 |
| VLQRSLWKDWVDGVMHGGGSRGV (DGI-2-20R-3-A7; listed as Escherichia coli) | 13.9 | 0.9 | 4.8 | 5.1 |
| TSCQVMFLAGQHLLSRVPRL (DGI-2-20R-3-B6; listed as Escherichia coli) [DGL-2-20R-3-B6] | 11.7 | 1.0 | 2.8 | 2.7 |
| GVVRAQQGLRYELQGDRYRLRRTQWLTVTYCSPSWAFAGC (DGI-2-40F-3-B116; listed as Escherichia coli) | 6.5 | 0.8 | 1.7 | 2.0 |
| SLFERSARSRYHGSPDCNGS (DGI-2-20F-PP-A3; listed as Escherichia coli) | 12.9 | 1.2 | 2.8 | 2.4 |
| VVHTRAWGSWAYGFVLRNRG (DGI-2-20F-PP-F10; listed as Escherichia coli) | 42.5 | 1.3 | 3.5 | 2.8 |
| YGTAGLFLRRACTMSDPGDPLGRRGYTGWGVLWDEWVTGS (DGI-2-40F-3-C8; listed as Escherichia coli) | 13.6 | 0.9 | 5.7 | 6.0 |
| RDTMCGSVSWGIPGCEYSGM (DGI-2-20R-4-G122; listed as Escherichia coli) | 13.9 | 1.1 | 7.6 | 7.1 |
| WWREWVDGSLRGGGGTVLKD (DGI-2-20R-3-A122; listed as Escherichia coli) | 15.1 | 1.0 | 9.6 | 9.4 |
